In the experiment the target is T1, H^+ --K^+ ATPase (Sus scrofa, UniProt P19156).
T1 construct: prepared from the fundus ventriculi gland of fresh swine gastric mucosa; from tissue; host or cells: swine gastric mucosa, fundus ventriculi gland (modified method of Saccomani et al. 1977)
In words: Inhibition effect on H^+ --K^+ ATPase activity. It is filed as biochemical. To be noted: H^+ --K^+ ATPase from fresh swine gastric mucosa, 10 μg protein/ml, pH 7.40, 37° C., 30 minutes incubation; compound dissolved in methanol. As for the experimental part: Inhibition effect on H^+ --K^+ ATPase activity
(1) Preparation of H^+ --K+ATPase
The enzyme H^+ --K+ATPase was prepared from the fundus ventriculi gland of fresh swine gastric mucosa by a modified method of Saccomani et al. (Biochem. and Biophys. Acta., 464, 313 (1977)).
(2) Determination of H^+ --K^+ ATPase activity
Various concentrations of the compounds of the present invention were incubated together with 10 μg protein/ml of the H^+ --K^+ ATPase in a 40 mM Tris HCl buffer (pH 7.40) at 37° C. for 30 minutes. Then 15 mM KCl was added thereto. Ten minutes thereafter, an ATPase reaction between 3 mM of MgCl2 and ATP was started. Ten minutes thereafter, the liberated inorganic phosphoric acid was determined according to Yoda and Hokin's method (cf. Biochem. Biophys. Res., Com., 40, 880 (1970)).
The test compound was 3-(3-methoxy)propoxy-4-methyl-5H-pyrido[1'.2':4.5][1.2.4.]thiazino[2.3-a]- benzimidazol-13-ium tetrafluoroborate (the compound of Example 1). This compound was dissolved in methanol prior to the test.
The inhibition effect (%) was calculated by dividing the difference between the data of the test group and that of the control group, to which solvent was added exclusively, by the data of the control group.
(1) Preparation of H^+ --K^+ ATPase
The enzyme H^+ --K^+ ATPase was prepared from the fundus ventriculi gland of fresh swine gastric mucosa by a modified method of Saccomani et al. (Biochem. and Biophys. Acta., 464, 313 (1977)).
Various concentrations of the compounds of the present invention were incubated together with 10 μg protein/ml of the H+--K^+ ATPase in a 40 mM Tris HCl buffer (pH 7.40) at 37° C. for 30 minutes. Then 15 mM KCl was added thereto. Ten minutes thereafter, an ATPase reaction between 3 mM of MgCl and ATP was started. Ten minutes thereafter, the liberated inorganic phosphoric acid was determined according to Yoda and Hokin's method (cf. Biochem. Biophys. Res., Com., 40, 880 (1970)).
The test compound was 2-[2-(ethyldithiomethyl)4-(3-methoxy)propoxy-3-methyl-1-pyridinio)benzimidazolide (the compound of Example 1). […]

T1 sequence (P19156 2-1034 limits assumed): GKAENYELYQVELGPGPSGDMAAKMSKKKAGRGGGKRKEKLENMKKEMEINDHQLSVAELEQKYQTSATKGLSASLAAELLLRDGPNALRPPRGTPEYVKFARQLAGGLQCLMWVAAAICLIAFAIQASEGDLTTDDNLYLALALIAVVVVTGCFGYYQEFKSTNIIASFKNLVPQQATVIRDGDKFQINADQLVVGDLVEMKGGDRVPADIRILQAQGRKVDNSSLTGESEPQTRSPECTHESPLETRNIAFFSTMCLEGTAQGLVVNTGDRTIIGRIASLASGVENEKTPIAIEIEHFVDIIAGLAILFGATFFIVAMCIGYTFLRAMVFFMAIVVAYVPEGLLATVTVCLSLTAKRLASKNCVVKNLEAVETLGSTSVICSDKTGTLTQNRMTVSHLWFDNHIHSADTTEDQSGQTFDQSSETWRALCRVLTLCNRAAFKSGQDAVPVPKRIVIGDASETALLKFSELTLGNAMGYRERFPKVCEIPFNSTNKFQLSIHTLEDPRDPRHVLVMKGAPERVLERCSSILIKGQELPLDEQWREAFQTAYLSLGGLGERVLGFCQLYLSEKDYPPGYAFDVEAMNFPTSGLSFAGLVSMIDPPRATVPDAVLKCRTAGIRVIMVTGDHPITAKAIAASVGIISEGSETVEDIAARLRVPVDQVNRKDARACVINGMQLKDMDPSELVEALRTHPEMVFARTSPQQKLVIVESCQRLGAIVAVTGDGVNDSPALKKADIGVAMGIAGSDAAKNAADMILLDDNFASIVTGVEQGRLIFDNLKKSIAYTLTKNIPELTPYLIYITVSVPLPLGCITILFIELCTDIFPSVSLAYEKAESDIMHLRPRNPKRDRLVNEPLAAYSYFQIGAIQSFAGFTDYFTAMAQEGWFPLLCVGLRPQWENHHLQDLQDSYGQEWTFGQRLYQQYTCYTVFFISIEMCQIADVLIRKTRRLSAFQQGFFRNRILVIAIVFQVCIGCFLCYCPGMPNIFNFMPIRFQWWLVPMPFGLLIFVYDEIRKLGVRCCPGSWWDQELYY
T1 sequence (P18434 whole entry partner): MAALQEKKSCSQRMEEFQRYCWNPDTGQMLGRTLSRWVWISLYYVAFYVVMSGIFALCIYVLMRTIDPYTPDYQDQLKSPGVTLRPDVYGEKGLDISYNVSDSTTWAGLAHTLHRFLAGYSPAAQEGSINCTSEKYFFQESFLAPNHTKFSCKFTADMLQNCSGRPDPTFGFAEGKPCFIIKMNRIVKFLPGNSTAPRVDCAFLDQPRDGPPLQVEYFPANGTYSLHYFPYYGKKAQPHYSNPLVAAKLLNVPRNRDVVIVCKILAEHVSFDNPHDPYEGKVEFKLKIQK

`COCCCOc1cc[n+]2c(c1C)CSn1c-2nc2ccccc21` [Example 1, 3-(3-Methoxy)propoxy-4-methyl-5H-pyrido[1'.2':4.5][1.2.4]thiaziano[2.3-a]benzimidazol-13-ium tetrafluoroborate] had a half-maximal inhibitory concentration (IC50) of 0.44 µM.

For the compound `CCSSCc1c(C)c(OCCCOC)cc[n+]1-c1nc2ccccc2[n-]1` [Example 12, 2-[2-(Ethyldithiomethyl)-4-(3-methoxy)propoxy-3-methyl-1pyridinio]benzimidazolide], the IC50 was > 10 µM.

Take `COc1ccc2[nH]c([S+]([O-])Cc3ncc(C)c(OC)c3C)nc2c1` (stereo not drawn) [Omeprazole, reference compound]: it took 11 µM to reach half-maximal inhibition (IC50).

The term IC50 denotes the concentration that gives 50% inhibition. A low value points to greater potency in that assay.
